The compounds below were run on HCT116 cells (assay: In vitro cytotoxicity measured by the cell colony formation assay). Details: HCT116 cells, 72 h incubation with drug, colonies counted after 7 days; ID50 = drug concentration producing 50% inhibition of colony formation; read-out: IN VITRO ID 50 (nm) HCT116.
Format: cell-based
Outline: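 Colony-forming survival was scored 7 days after a 72 h, 37 °C compound exposure followed by washout into fresh medium.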

For `C/C=C/C(=O)N[C@@H](c1cccs1)[C@@H](O)C(=O)O[C@H]1C[C@@]2(O)[C@@H](OC(=O)c3ccccc3)C3[C@](C)(C(=O)[C@H](OC(=O)OCC)C(=C1C)C2(C)C)[C@@H](O)C[C@H]1OC[C@@]31OC(C)=O` (some centres unmarked) [Compound 3243], which IC50 is on record?
The IC50 was less than 1 nM.

Which IC50 does the source give for `CCOC(=O)O[C@H]1C(=O)[C@@]2(C)C([C@H](OC(=O)c3ccccc3)[C@]3(O)C[C@H](OC(=O)[C@H](O)[C@@H](NC(=O)c4cccnc4)c4cccs4)C(C)=C1C3(C)C)[C@]1(OC(C)=O)CO[C@@H]1C[C@@H]2O` (some centres unmarked) [Compound 3300] here?
The IC50 was less than 10 nM.

`CCOC(=O)O[C@H]1C(=O)[C@@]2(C)C([C@H](OC(=O)c3ccccc3)[C@]3(O)C[C@H](OC(=O)[C@H](O)[C@@H](NC(=O)c4ccncc4)c4cccs4)C(C)=C1C3(C)C)[C@]1(OC(C)=O)CO[C@@H]1C[C@@H]2O` (some centres unmarked) [Compound 3393] was tested. Which IC50 did it give?
The IC50 was greater than 50 nM.

For `CCOC(=O)O[C@H]1C(=O)[C@@]2(C)C([C@H](OC(=O)c3ccccc3)[C@]3(O)C[C@H](OC(=O)[C@H](O)[C@@H](NC(=O)c4ccccn4)c4cccs4)C(C)=C1C3(C)C)[C@]1(OC(C)=O)CO[C@@H]1C[C@@H]2O` (some centres unmarked) [Compound 3433], which IC50 is on record?
The IC50 was 22.3 nM.

Same assay, conditions: HCT116 colony formation; 72 h drug incubation, colonies counted after 7 days; Example 5, C-7 ester/C-10 hydroxy taxanes; read-out: IN VITRO ID 50 (nm) HCT116

How did the IC50 turn out when `CCC(=O)O[C@H]1C[C@H]2OC[C@@]2(OC(C)=O)C2[C@H](OC(=O)c3ccccc3)[C@]3(O)C[C@H](OC(=O)[C@H](O)[C@@H](NC(=O)OCC(C)C)c4cccs4)C(C)=C([C@@H](O)C(=O)[C@@]21C)C3(C)C` (some centres unmarked) [Compound 3232] was run?
Its IC50 is less than 1 nM.

Which IC50 does the source give for `CCCC(=O)N[C@@H](c1cccs1)[C@@H](O)C(=O)O[C@H]1C[C@@]2(O)[C@@H](OC(=O)c3ccccc3)C3[C@](C)(C(=O)[C@H](O)C(=C1C)C2(C)C)[C@@H](OC(=O)CC)C[C@H]1OC[C@@]31OC(C)=O` (some centres unmarked) [Compound 3327] here?
The IC50 was less than 10 nM.

Which IC50 does the source give for `CCC(=O)O[C@H]1C[C@H]2OC[C@@]2(OC(C)=O)C2[C@H](OC(=O)c3ccccc3)[C@]3(O)C[C@H](OC(=O)[C@H](O)[C@@H](NC(=O)c4ccccc4)c4ccsc4)C(C)=C([C@@H](O)C(=O)[C@@]21C)C3(C)C` (some centres unmarked) [Compound 3388] here?
The IC50 was less than 10 nM.

For `CCC(=O)O[C@H]1C[C@H]2OC[C@@]2(OC(C)=O)C2[C@H](OC(=O)c3ccccc3)[C@]3(O)C[C@H](OC(=O)[C@H](O)[C@@H](NC(=O)OC(C)C)c4ccco4)C(C)=C([C@@H](O)C(=O)[C@@]21C)C3(C)C` (some centres unmarked) [Compound 3444], which IC50 is on record?
The IC50 was less than 1 nM.

With `CCC(=O)O[C@H]1C[C@H]2OC[C@@]2(OC(C)=O)C2[C@H](OC(=O)c3ccccc3)[C@]3(O)C[C@H](OC(=O)[C@H](O)[C@@H](NC(=O)c4cccs4)c4cccs4)C(C)=C([C@@H](O)C(=O)[C@@]21C)C3(C)C` (some centres unmarked) [Compound 3479] as the compound, how does the IC50 read?
The IC50 was less than 1 nM.

Same assay, conditions: HCT116 colony formation; 72 h drug incubation, colonies counted after 7 days; Example 10, C-10 ester/C-7 hydroxy taxanes; read-out: IN VITRO ID 50 (nm) HCT116

Which IC50 does the source give for `CCCC(=O)O[C@H]1C(=O)[C@@]2(C)C([C@H](OC(=O)c3ccccc3)[C@]3(O)C[C@H](OC(=O)[C@H](O)[C@@H](NC(=O)c4ccccc4)c4ccco4)C(C)=C1C3(C)C)[C@]1(OC(C)=O)CO[C@@H]1C[C@@H]2O` (some centres unmarked) [Compound 3204] here?
The IC50 was less than 1 nM.

With `CCCC(=O)N[C@@H](c1ccco1)[C@@H](O)C(=O)O[C@H]1C[C@@]2(O)[C@@H](OC(=O)c3ccccc3)C3[C@](C)(C(=O)[C@H](OC(=O)CC)C(=C1C)C2(C)C)[C@@H](O)C[C@H]1OC[C@@]31OC(C)=O` (some centres unmarked) [Compound 3219] as the compound, how does the IC50 read?
Its IC50 is less than 1 nM.

How did the IC50 turn out when `CCCC(=O)N[C@@H](c1ccco1)[C@@H](O)C(=O)O[C@H]1C[C@@]2(O)[C@@H](OC(=O)c3ccccc3)C3[C@](C)(C(=O)[C@H](OC(=O)CCC)C(=C1C)C2(C)C)[C@@H](O)C[C@H]1OC[C@@]31OC(C)=O` (some centres unmarked) [Compound 3222] was run?
Its IC50 is less than 1 nM.

Which IC50 does the source give for `CCCC(=O)O[C@H]1C(=O)[C@@]2(C)C([C@H](OC(=O)c3ccccc3)[C@]3(O)C[C@H](OC(=O)[C@H](O)[C@@H](NC(=O)c4ccccc4)c4cccs4)C(C)=C1C3(C)C)[C@]1(OC(C)=O)CO[C@@H]1C[C@@H]2O` (some centres unmarked) [Compound 3258] here?
The IC50 was less than 1 nM.

How did the IC50 turn out when `CCCC(=O)O[C@H]1C(=O)[C@@]2(C)C([C@H](OC(=O)c3ccccc3)[C@]3(O)C[C@H](OC(=O)[C@H](O)[C@@H](NC(=O)OCC(C)C)c4cccs4)C(C)=C1C3(C)C)[C@]1(OC(C)=O)CO[C@@H]1C[C@@H]2O` (some centres unmarked) [Compound 3265] was run?
Its IC50 is less than 10 nM.

Which IC50 does the source give for `CC(=O)O[C@@]12CO[C@@H]1C[C@H](O)[C@@]1(C)C(=O)[C@H](OC(=O)C3CC3)C3=C(C)[C@@H](OC(=O)[C@H](O)[C@@H](NC(=O)c4ccco4)c4cccs4)C[C@@](O)([C@@H](OC(=O)c4ccccc4)C12)C3(C)C` (some centres unmarked) [Compound 3297] here?
The IC50 was less than 1 nM.

`CCCC(=O)N[C@@H](c1cccs1)[C@@H](O)C(=O)O[C@H]1C[C@@]2(O)[C@@H](OC(=O)c3ccccc3)C3[C@](C)(C(=O)[C@H](OC(=O)CCC)C(=C1C)C2(C)C)[C@@H](O)C[C@H]1OC[C@@]31OC(C)=O` (some centres unmarked) [Compound 3314] was tested. Which IC50 did it give?
Its IC50 is less than 1 nM.

`CCCC(=O)O[C@H]1C(=O)[C@@]2(C)C([C@H](OC(=O)c3ccccc3)[C@]3(O)C[C@H](OC(=O)[C@H](O)[C@@H](NC(=O)c4ccco4)c4cccs4)C(C)=C1C3(C)C)[C@]1(OC(C)=O)CO[C@@H]1C[C@@H]2O` (some centres unmarked) [Compound 3352] was tested. Which IC50 did it give?
Its IC50 is less than 1 nM.

For `CCC(=O)O[C@H]1C(=O)[C@@]2(C)C([C@H](OC(=O)c3ccccc3)[C@]3(O)C[C@H](OC(=O)[C@H](O)[C@@H](NC(=O)OC(C)C)c4cccs4)C(C)=C1C3(C)C)[C@]1(OC(C)=O)CO[C@@H]1C[C@@H]2O` (some centres unmarked) [Compound 3361], which IC50 is on record?
Its IC50 is less than 1 nM.

`CCOC(=O)N[C@@H](c1cccs1)[C@@H](O)C(=O)O[C@H]1C[C@@]2(O)[C@@H](OC(=O)c3ccccc3)C3[C@](C)(C(=O)[C@H](OC(=O)CC)C(=C1C)C2(C)C)[C@@H](O)C[C@H]1OC[C@@]31OC(C)=O` (some centres unmarked) [Compound 3370] was tested. Which IC50 did it give?
Its IC50 is less than 1 nM.

How did the IC50 turn out when `CCCC(=O)O[C@H]1C(=O)[C@@]2(C)C([C@H](OC(=O)c3ccccc3)[C@]3(O)C[C@H](OC(=O)[C@H](O)[C@@H](NC(=O)c4cccs4)c4cccs4)C(C)=C1C3(C)C)[C@]1(OC(C)=O)CO[C@@H]1C[C@@H]2O` (some centres unmarked) [Compound 3408] was run?
The IC50 was less than 1 nM.

Which IC50 does the source give for `CCCC(=O)O[C@H]1C(=O)[C@@]2(C)C([C@H](OC(=O)c3ccccc3)[C@]3(O)C[C@H](OC(=O)[C@H](O)[C@@H](NC(=O)OC(C)C)c4ccco4)C(C)=C1C3(C)C)[C@]1(OC(C)=O)CO[C@@H]1C[C@@H]2O` (some centres unmarked) [Compound 3417] here?
Its IC50 is less than 1 nM.

With `CCC(=O)O[C@H]1C(=O)[C@@]2(C)C([C@H](OC(=O)c3ccccc3)[C@]3(O)C[C@H](OC(=O)[C@H](O)[C@@H](NC(=O)c4cccs4)c4cccs4)C(C)=C1C3(C)C)[C@]1(OC(C)=O)CO[C@@H]1C[C@@H]2O` (some centres unmarked) [Compound 3425] as the compound, how does the IC50 read?
Its IC50 is less than 1 nM.

For `CC(=O)O[C@@]12CO[C@@H]1C[C@H](O)[C@@]1(C)C(=O)[C@H](OC(=O)C3CC3)C3=C(C)[C@@H](OC(=O)[C@H](O)[C@@H](NC(=O)c4cccs4)c4cccs4)C[C@@](O)([C@@H](OC(=O)c4ccccc4)C12)C3(C)C` (some centres unmarked) [Compound 3453], which IC50 is on record?
The IC50 was less than 1 nM.

How did the IC50 turn out when `CCCC(=O)O[C@H]1C(=O)[C@@]2(C)C([C@H](OC(=O)c3ccccc3)[C@]3(O)C[C@H](OC(=O)[C@H](O)[C@@H](NC(=O)c4ccccc4)C4CC4)C(C)=C1C3(C)C)[C@]1(OC(C)=O)CO[C@@H]1C[C@@H]2O` (some centres unmarked) [Compound 3482] was run?
Its IC50 is less than 1 nM.

With `C/C=C/C(=O)N[C@@H](c1cccs1)[C@@H](O)C(=O)O[C@H]1C[C@@]2(O)[C@@H](OC(=O)c3ccccc3)C3[C@](C)(C(=O)[C@H](OC(=O)CC)C(=C1C)C2(C)C)[C@@H](O)C[C@H]1OC[C@@]31OC(C)=O` (some centres unmarked) [Compound 3494] as the compound, how does the IC50 read?
Its IC50 is less than 1 nM.

For `C/C=C/C(=O)N[C@@H](c1cccs1)[C@@H](O)C(=O)O[C@H]1C[C@@]2(O)[C@@H](OC(=O)c3ccccc3)C3[C@](C)(C(=O)[C@H](OC(=O)C4CC4)C(=C1C)C2(C)C)[C@@H](O)C[C@H]1OC[C@@]31OC(C)=O` (some centres unmarked) [Compound 3513], which IC50 is on record?
Its IC50 is less than 1 nM.

Source: patent US6638973B2, “Taxane formulations” (FSU Research Foundation, Inc., priority 2000, dated 2003)
